The target in test [1] is T1, Alpha-2B adrenergic receptor (Homo sapiens, UniProt P18089).
T1 sequence (P18089 whole entry): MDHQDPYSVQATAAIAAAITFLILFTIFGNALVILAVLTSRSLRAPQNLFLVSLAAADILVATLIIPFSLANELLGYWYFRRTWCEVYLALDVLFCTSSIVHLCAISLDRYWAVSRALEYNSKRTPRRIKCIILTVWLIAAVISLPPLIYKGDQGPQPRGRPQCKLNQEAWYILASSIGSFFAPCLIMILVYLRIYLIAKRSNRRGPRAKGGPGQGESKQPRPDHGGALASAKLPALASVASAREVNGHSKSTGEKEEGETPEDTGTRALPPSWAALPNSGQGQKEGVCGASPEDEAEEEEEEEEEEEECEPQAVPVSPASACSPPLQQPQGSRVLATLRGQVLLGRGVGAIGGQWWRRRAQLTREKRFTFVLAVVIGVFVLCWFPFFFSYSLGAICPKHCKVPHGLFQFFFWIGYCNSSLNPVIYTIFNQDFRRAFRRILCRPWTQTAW

Test [2] deals with Beta-2 adrenergic receptor (Homo sapiens, UniProt P07550).
Sequence of Beta-2 adrenergic receptor (P07550 whole entry): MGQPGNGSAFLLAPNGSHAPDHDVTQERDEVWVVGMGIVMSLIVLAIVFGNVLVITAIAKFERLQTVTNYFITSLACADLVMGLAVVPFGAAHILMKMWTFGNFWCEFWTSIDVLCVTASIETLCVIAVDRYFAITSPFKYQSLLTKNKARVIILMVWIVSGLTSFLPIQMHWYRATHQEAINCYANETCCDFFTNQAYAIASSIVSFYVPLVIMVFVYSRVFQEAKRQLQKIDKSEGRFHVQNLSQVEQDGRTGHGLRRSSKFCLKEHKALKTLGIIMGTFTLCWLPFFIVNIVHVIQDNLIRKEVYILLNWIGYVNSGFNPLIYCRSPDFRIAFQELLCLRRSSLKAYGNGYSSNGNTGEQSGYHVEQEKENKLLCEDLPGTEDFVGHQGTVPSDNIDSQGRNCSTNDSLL
Test [3] concerns the target T2, Muscarinic acetylcholine receptor M1 (Homo sapiens, UniProt P11229).
T2 sequence (P11229 whole entry): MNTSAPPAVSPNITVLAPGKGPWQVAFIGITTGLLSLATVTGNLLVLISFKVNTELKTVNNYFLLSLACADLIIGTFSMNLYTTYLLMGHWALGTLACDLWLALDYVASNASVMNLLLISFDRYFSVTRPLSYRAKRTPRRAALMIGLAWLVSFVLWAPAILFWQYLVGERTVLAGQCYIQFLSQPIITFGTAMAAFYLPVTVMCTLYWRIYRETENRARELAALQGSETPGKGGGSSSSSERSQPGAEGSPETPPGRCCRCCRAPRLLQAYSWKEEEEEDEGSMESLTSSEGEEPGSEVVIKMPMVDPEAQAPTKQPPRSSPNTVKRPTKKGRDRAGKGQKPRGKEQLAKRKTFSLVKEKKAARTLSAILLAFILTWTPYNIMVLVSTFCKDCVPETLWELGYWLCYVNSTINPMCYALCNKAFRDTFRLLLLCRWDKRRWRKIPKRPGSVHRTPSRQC
The format is functional.

Test [4] has as its target Neuronal acetylcholine receptor subunit alpha-4 (Homo sapiens, UniProt P43681).
The target of a further test is Cannabinoid receptor 1 (Homo sapiens, UniProt P21554). The format is functional, cell-based.
Sequence of Cannabinoid receptor 1 (P21554 whole entry): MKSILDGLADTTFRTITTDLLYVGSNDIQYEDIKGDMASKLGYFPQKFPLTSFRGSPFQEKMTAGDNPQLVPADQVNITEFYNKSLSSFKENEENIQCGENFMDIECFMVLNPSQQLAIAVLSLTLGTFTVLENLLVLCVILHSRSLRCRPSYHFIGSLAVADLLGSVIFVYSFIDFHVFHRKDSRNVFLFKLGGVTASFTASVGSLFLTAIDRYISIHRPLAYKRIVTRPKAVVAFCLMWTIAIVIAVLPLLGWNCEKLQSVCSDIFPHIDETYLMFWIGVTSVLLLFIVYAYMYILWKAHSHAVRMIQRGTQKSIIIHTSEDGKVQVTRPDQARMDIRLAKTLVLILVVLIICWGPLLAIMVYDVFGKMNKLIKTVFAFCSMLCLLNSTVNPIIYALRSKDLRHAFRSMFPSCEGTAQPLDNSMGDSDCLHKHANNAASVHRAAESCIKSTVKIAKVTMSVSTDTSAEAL
Test [5] has as its target Gamma-aminobutyric acid receptor subunit alpha-1 (Rattus norvegicus, UniProt P62813).
Test [6] has as its target Glutamate receptor ionotropic, NMDA 1 (Rattus norvegicus, UniProt P35439).
Test [7] deals with T3, 5-hydroxytryptamine receptor 1A (Homo sapiens, UniProt P08908).
T3 sequence (P08908 whole entry): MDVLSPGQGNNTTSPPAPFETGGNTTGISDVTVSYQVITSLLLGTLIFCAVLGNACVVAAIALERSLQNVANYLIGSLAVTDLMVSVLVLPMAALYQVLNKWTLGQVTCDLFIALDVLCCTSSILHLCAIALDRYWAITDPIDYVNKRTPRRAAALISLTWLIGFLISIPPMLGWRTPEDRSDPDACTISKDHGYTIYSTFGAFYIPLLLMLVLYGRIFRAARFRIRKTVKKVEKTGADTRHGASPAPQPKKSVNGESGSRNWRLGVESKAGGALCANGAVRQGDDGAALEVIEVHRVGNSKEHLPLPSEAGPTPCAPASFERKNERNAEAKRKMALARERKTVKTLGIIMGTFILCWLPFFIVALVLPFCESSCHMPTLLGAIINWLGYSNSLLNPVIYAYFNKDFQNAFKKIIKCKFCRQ
It counts as functional, cell-based.

Test [8] has as its target Voltage-gated inwardly rectifying potassium channel KCNH2 (Homo sapiens, UniProt Q12809). The format is functional. The following applies: read-out: AC50.
The target of the next test is Melanocortin receptor 3 (Homo sapiens, UniProt P41968).
Sequence of Melanocortin receptor 3 (P41968 whole entry): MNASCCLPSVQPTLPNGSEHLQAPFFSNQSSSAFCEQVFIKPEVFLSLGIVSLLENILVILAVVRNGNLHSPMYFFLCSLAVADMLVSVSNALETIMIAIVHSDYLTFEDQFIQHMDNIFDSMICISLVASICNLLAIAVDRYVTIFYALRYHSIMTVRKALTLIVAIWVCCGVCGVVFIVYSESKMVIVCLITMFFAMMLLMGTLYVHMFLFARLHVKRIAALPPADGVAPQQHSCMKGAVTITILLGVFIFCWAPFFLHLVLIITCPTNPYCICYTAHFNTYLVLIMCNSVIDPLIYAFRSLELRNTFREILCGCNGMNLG
Test [9] concerns the target T4, Neuropeptide Y receptor type 1 (Homo sapiens, UniProt P25929).
T4 sequence (P25929 whole entry): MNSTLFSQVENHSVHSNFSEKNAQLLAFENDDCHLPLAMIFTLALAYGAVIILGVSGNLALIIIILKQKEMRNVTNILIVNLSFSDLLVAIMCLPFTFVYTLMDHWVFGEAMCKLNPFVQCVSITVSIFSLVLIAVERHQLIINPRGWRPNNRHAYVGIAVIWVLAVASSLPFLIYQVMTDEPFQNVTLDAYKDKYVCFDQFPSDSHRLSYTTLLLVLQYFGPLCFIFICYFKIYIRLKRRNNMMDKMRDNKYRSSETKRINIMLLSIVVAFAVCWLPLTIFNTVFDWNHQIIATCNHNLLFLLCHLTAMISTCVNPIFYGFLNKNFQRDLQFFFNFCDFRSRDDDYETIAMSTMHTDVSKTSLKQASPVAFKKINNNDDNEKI

For test [10], the target named is T5, Alpha-1A adrenergic receptor (Homo sapiens, UniProt P35348).
T5 sequence (P35348 whole entry): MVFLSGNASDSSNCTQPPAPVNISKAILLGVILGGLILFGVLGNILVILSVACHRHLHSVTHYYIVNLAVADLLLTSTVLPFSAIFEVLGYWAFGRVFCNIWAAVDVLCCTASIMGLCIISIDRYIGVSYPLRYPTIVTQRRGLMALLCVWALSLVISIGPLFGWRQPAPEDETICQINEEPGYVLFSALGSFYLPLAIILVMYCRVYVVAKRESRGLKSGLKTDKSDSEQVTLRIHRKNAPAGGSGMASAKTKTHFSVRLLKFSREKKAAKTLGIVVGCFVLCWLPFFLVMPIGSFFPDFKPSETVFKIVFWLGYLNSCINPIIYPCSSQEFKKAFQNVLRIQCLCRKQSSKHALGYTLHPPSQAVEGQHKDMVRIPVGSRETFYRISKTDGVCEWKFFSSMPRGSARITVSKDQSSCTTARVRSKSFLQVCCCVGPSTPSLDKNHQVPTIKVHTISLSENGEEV
The format is functional, cell-based.

Some results are limits rather than exact numbers.
Also: assay procedure not described here.

Sequence of Voltage-gated inwardly rectifying potassium channel KCNH2 (Q12809 whole entry): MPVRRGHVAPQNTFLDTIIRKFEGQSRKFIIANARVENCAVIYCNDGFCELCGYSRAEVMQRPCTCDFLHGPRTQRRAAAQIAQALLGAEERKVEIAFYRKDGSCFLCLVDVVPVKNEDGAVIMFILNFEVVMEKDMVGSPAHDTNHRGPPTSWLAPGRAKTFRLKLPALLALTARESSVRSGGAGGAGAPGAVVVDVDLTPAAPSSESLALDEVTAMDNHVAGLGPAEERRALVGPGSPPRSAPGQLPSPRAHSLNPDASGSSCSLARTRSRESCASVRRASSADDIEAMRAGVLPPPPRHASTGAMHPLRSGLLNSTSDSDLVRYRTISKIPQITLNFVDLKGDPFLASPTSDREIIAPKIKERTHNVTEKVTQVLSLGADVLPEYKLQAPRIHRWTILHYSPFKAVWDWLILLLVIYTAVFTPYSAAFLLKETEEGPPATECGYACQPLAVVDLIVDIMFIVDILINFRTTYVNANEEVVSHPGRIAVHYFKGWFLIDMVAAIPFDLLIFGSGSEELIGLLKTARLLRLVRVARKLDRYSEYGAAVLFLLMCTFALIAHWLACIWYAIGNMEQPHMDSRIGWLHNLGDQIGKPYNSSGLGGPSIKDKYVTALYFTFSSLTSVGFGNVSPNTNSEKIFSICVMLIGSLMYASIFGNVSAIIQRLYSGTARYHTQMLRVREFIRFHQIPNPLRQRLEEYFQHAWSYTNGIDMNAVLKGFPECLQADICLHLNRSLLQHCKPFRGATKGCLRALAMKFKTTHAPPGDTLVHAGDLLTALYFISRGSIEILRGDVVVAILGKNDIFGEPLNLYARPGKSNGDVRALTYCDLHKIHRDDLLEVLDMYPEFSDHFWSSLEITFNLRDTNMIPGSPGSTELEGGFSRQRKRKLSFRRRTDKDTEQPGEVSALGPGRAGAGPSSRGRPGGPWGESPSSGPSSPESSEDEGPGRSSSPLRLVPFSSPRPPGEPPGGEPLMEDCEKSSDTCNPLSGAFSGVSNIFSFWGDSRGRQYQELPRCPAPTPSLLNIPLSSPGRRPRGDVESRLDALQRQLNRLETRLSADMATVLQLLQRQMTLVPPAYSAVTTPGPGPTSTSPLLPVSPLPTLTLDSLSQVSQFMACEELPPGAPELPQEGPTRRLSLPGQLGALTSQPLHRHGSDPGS
Sequence of Gamma-aminobutyric acid receptor subunit alpha-1 (P62813 whole entry): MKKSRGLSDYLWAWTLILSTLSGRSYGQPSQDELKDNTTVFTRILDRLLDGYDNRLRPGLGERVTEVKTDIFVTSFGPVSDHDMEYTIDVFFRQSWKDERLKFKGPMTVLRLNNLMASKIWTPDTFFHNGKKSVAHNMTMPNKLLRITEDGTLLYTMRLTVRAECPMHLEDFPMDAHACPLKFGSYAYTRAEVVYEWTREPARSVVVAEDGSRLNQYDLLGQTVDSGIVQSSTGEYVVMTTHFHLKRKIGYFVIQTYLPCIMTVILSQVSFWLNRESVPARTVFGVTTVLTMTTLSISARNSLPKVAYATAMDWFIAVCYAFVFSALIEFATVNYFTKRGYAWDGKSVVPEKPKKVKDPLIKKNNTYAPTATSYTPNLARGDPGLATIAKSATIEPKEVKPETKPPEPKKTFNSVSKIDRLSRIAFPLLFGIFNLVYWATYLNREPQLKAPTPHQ
Sequence of Neuronal acetylcholine receptor subunit alpha-4 (P43681 whole entry): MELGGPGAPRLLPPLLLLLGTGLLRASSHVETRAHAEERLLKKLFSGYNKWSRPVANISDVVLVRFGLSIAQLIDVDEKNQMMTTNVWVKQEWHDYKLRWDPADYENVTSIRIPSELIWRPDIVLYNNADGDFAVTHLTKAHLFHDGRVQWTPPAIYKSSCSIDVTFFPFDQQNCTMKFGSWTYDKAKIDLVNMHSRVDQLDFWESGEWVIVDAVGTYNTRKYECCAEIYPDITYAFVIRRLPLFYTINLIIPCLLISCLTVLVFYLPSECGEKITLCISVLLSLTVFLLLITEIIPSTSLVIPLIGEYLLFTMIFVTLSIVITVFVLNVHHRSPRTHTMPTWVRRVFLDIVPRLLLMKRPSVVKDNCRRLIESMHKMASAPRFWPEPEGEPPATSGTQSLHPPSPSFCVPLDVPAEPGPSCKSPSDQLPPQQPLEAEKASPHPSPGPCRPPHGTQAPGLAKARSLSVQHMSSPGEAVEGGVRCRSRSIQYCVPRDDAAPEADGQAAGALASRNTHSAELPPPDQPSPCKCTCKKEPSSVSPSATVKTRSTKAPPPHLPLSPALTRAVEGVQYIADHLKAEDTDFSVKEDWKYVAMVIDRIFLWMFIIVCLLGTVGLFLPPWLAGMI

Take `CC(C)(C)C(=O)Oc1ccc(S(=O)(=O)Nc2ccccc2C(=O)NCC(=O)O)cc1`: the AC50 (in [1]; in test [2]; in test [3]; in test [4]; at Cannabinoid receptor 1; in test [5]) was greater than 30 µM each time. The concentration at half-maximal activity (AC50) (in test [6]; in [7]; in test [8]; on Melanocortin receptor 3; in test [9]) was greater than 30 µM each time.
Turning to `NCC(=O)CCC(=O)O` [AMINOLEVULINIC ACID], the AC50 (in test [10]; in test [1]; in test [3]; in [4]; at Cannabinoid receptor 1; in [5]) was greater than 30 µM each time. Besides, the AC50 (in [6]; in test [7]; in [8]; on Melanocortin receptor 3; in test [9]) was greater than 30 µM throughout.
For the molecule `CC(C[N+](C)(C)C)OC(N)=O` (configuration not stated) [BETHANECHOL], the AC50 in test [1] was greater than 10 µM; in [2], greater than 10 µM; in test [3], greater than 10 µM; in test [4], greater than 10 µM; on Cannabinoid receptor 1, greater than 30 µM; in test [5] it was greater than 10 µM. For the same molecule, the AC50 in [6] is greater than 10 µM; in [7], greater than 10 µM; in test [8], greater than 30 µM; on Melanocortin receptor 3, greater than 10 µM; in test [9] it was greater than 10 µM.
For `O=C(O)C1=C(CSc2nnnn2CS(=O)(=O)O)CS[C@@H]2[C@H](NC(=O)[C@H](O)c3ccccc3)C(=O)N12` [CEFONICID], the AC50 in [10], in [1], in test [2], in test [3], in [4] and in test [5] was greater than 30 µM throughout. The AC50 (in test [6]; in [7]; in test [8]; at Melanocortin receptor 3; in [9]) was greater than 30 µM throughout.
Consider `CCN1CCN(C(=O)N[C@@H](C(=O)N[C@@H]2C(=O)N3C(C(=O)O)=C(CSc4nnnn4C)CS[C@H]23)c2ccc(O)cc2)C(=O)C1=O` [CEFOPERAZONE], for which the AC50 (in test [10]; in test [1]; in test [3]; in test [4]; on Cannabinoid receptor 1; in test [6]) was greater than 30 µM in each case. The half-maximal activity concentration (AC50) (in [7]; in [8]; at Melanocortin receptor 3; in test [9]) was greater than 30 µM throughout.
For `Nc1nc(/C(=C/CC(=O)O)C(=O)N[C@@H]2C(=O)N3C(C(=O)O)=CCS[C@H]23)cs1` [CEFTIBUTEN], the AC50 in test [10], in test [1], in test [2], in test [3], in test [4] and in [5] was greater than 30 µM each time. For the same molecule, the AC50 (in test [6]; in test [7]; in [8]; at Melanocortin receptor 3; in test [9]) was greater than 30 µM each time.
In the case of `CC(C(=O)O)c1ccc(N2Cc3ccccc3C2=O)cc1` (configuration not stated) [INDOPROFEN], the AC50 in test [10], in test [1], in test [2], in test [3], in test [4] and in test [5] was greater than 30 µM throughout. In addition, the AC50 (in [6]; in [7]; in test [8]; on Melanocortin receptor 3; in test [9]) was greater than 30 µM throughout.
As for `CC(C)OC(=O)CCC/C=C\C[C@@H]1[C@@H](CC[C@@H](O)CCc2ccccc2)[C@H](O)C[C@@H]1O` [LATANOPROST], the AC50 (in test [10]; in [1]; in test [3]; in [4]; on Cannabinoid receptor 1; in test [5]) was greater than 30 µM in each case. The AC50 (in test [6]; in [7]; in test [8]; on Melanocortin receptor 3; in test [9]) was greater than 30 µM each time.
Regarding `CC(Oc1c(Cl)cccc1Cl)C1=NCCN1` (configuration not stated) [LOFEXIDINE], the AC50 in test [10] was 0.0071 µM; in test [1], 0.74 µM; in test [2], greater than 30 µM; in test [3] it was greater than 30 µM; in test [4], greater than 30 µM; in test [5], greater than 30 µM. Moreover, the concentration at half-maximal activity (AC50) in [6] was greater than 30 µM; in [7] it was 1.1 µM; in test [8], 8.86 µM; at Melanocortin receptor 3, greater than 30 µM; in [9], greater than 30 µM.
In the case of `CC(C)=CCC/C(C)=C/C=C/C(C)=C/C=C/C(C)=C/C=C/C=C(C)/C=C/C=C(C)/C=C/C=C(\C)CCC=C(C)C` [LYCOPENE], the AC50 in test [10], in test [1], in [2], in test [3], in test [4] and in [5] was greater than 30 µM each time. The AC50 (in [6]; in test [7]; in test [8]; at Melanocortin receptor 3; in test [9]) was greater than 30 µM in each case.
`O=C(O)/C=C/c1ccc(Cn2ccnc2)cc1` [OZAGREL]: the AC50 (in test [1]; in [3]; in [4]; on Cannabinoid receptor 1; in [5]; in test [6]) was greater than 30 µM in each case. For the same molecule, the AC50 (in test [7]; in test [8]; at Melanocortin receptor 3; in test [9]) was greater than 30 µM in each case.
On to `C/C(O)=C(\C#N)C(=O)Nc1ccc(C(F)(F)F)cc1` [TERIFLUNOMIDE], for which the concentration at half-maximal activity (AC50) (in test [10]; in test [1]; in [3]; in [4]; on Cannabinoid receptor 1; in test [7]) was greater than 30 µM throughout. Moreover, the concentration at half-maximal activity (AC50) (in test [8]; at Melanocortin receptor 3) was greater than 30 µM throughout.

These data come from ChEMBL document CHEMBL5291721, “A preclinical secondary pharmacology resource illuminates target-adverse drug reaction associations of marketed drugs” (Nat Commun, 2023).
